Values joined by “and” are separate entries in the source; they are usually repeats but may differ in a detail not shown here. Identical values can stand only once. ± gives the expanded uncertainty stated by the source.
Conditions: for vapor or sublimation pressure: Transpiration method; for Triple point temperature: DTA

F[B-](F)(F)F.[Cs+] [cesium tetrafluoroborate]
vapor or sublimation pressure (586 K, Crystal 1): 3.63e-05 ± 1.9e-06 kPa | vapor or sublimation pressure (592 K, Crystal 1): 4.17e-05 ± 2.2e-06 kPa | vapor or sublimation pressure (602 K, Crystal 1): 6.62e-05 ± 3.4e-06 kPa | vapor or sublimation pressure (608 K, Crystal 1): 8.43e-05 ± 4.3e-06 kPa | vapor or sublimation pressure (611 K, Crystal 1): 8.34e-05 ± 4.3e-06 kPa | vapor or sublimation pressure (623 K, Crystal 1): 0.0001414 ± 7.2e-06 kPa | vapor or sublimation pressure (627 K, Crystal 1): 0.0001287 ± 6.5e-06 kPa [middle of 4 runs] | vapor or sublimation pressure (634 K, Crystal 1): 0.0001822 ± 9.2e-06 kPa | vapor or sublimation pressure (648 K, Crystal 1): 0.0002611 ± 1.3e-05 kPa | vapor or sublimation pressure (654 K, Crystal 1): 0.0003472 ± 1.7e-05 kPa | vapor or sublimation pressure (666 K, Crystal 1): 0.0003572 ± 1.8e-05 kPa | vapor or sublimation pressure (682 K, Crystal 1): 0.0005593 ± 2.8e-05 kPa | vapor or sublimation pressure (692 K, Crystal 1): 0.0007727 ± 3.9e-05 kPa | vapor or sublimation pressure (703 K, Crystal 1): 0.0008954 ± 4.5e-05 kPa | vapor or sublimation pressure (705 K, Crystal 1): 0.000949 ± 4.8e-05 kPa | Triple point temperature (Crystal 2): 442 ± 1 K

F[B-](F)(F)F.[Rb+] [rubidium tetrafluoroborate]
vapor or sublimation pressure (550 K, Crystal 1): 3.93e-05 ± 2.1e-06 kPa | vapor or sublimation pressure (555 K, Crystal 1): 5.32e-05 ± 2.8e-06 kPa | vapor or sublimation pressure (566 K, Crystal 1): 6.47e-05 ± 3.3e-06 kPa | vapor or sublimation pressure (576 K, Crystal 1): 9.73e-05 ± 5e-06 kPa | vapor or sublimation pressure (581 K, Crystal 1): 9.94e-05 ± 5.1e-06 kPa | vapor or sublimation pressure (592 K, Crystal 1): 0.0001394 ± 7.1e-06 kPa | vapor or sublimation pressure (602 K, Crystal 1): 0.0001641 ± 8.3e-06 kPa | vapor or sublimation pressure (613 K, Crystal 1): 0.0002173 ± 1.1e-05 kPa | vapor or sublimation pressure (622 K, Crystal 1): 0.0002867 ± 1.4e-05 kPa and 0.000287 ± 1.5e-05 kPa and 0.0002854 ± 1.4e-05 kPa | vapor or sublimation pressure (629 K, Crystal 1): 0.0003005 ± 1.5e-05 kPa | vapor or sublimation pressure (641 K, Crystal 1): 0.0004209 ± 2.1e-05 kPa | vapor or sublimation pressure (655 K, Crystal 1): 0.0005109 ± 2.6e-05 kPa | vapor or sublimation pressure (676 K, Crystal 1): 0.0007892 ± 4e-05 kPa | vapor or sublimation pressure (697 K, Crystal 1): 0.001082 ± 5.4e-05 kPa | Triple point temperature (Crystal 2): 527 ± 1 K

F[B-](F)(F)F.[Na+] [sodium tetrafluoroborate]
vapor or sublimation pressure (483 K, Crystal 2): 0.0002215 ± 1.1e-05 kPa | vapor or sublimation pressure (493 K, Crystal 2): 0.0003008 ± 1.5e-05 kPa | vapor or sublimation pressure (498 K, Crystal 2): 0.0003479 ± 1.7e-05 kPa | vapor or sublimation pressure (503 K, Crystal 2): 0.0003963 ± 2e-05 kPa | vapor or sublimation pressure (519 K, Crystal 1): 0.0006401 ± 3.2e-05 kPa | vapor or sublimation pressure (519 K, Crystal 2): 0.0006401 ± 3.2e-05 kPa | vapor or sublimation pressure (523 K, Crystal 1): 0.0008727 ± 4.4e-05 kPa | vapor or sublimation pressure (533 K, Crystal 1): 0.001184 ± 5.9e-05 kPa | vapor or sublimation pressure (544 K, Crystal 1): 0.001662 ± 8.3e-05 kPa | vapor or sublimation pressure (545 K, Crystal 1): 0.001475 ± 7.4e-05 kPa | vapor or sublimation pressure (554 K, Crystal 1): 0.001848 ± 9.2e-05 kPa [middle of 5 runs] | vapor or sublimation pressure (566 K, Crystal 1): 0.002561 ± 0.00013 kPa | vapor or sublimation pressure (575 K, Crystal 1): 0.002638 ± 0.00013 kPa | vapor or sublimation pressure (576 K, Crystal 1): 0.003027 ± 0.00015 kPa | vapor or sublimation pressure (580 K, Crystal 1): 0.003513 ± 0.00018 kPa | vapor or sublimation pressure (586 K, Crystal 1): 0.003838 ± 0.00019 kPa | vapor or sublimation pressure (602 K, Crystal 1): 0.003513 ± 0.00018 kPa | vapor or sublimation pressure (612 K, Crystal 1): 0.005891 ± 0.00029 kPa | vapor or sublimation pressure (622 K, Crystal 1): 0.008782 ± 0.00044 kPa | vapor or sublimation pressure (663 K, Crystal 1): 0.01582 ± 0.00079 kPa | Triple point temperature (Crystal 2): 519 ± 1 K

From the NIST ThermoML archive (doi:10.1016/j.tca.2006.10.008)
